Reference: patent publication US10206907B2, “Compounds useful for the treatment of degenerative and inflammatory diseases” (GALAPAGOS NV, priority 2008, dated 2019)

What was measured:
[1] = target: Recombinant human JAK1 catalytic domain (Homo sapiens (Human), UniProt P23458); assay: JAK1 inhibition assay; type: biochemical; conditions: semi-quantitative score
How it was run: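 Radiometric assay read by scintillation counting after phosphoric-acid washes. Percent inhibition calculated from cpm relative to vehicle and 10 μM staurosporine control. IC50 derived from compound dose-dilution series.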

[2] = Microsomal stability, human liver microsomes; type: in vitro ADME; conditions: percentage of compound remaining after 60 minutes, 3 μM compound
Method: (§1) 40 μL of deionised water was added to a well of a polypropylene Matrix 2D barcode labelled storage tube (Thermo Scientific) and pre-incubated at 37° C.
(§2) A co-factor containing MgCl2, glucose-6-phosphate and NADP+ was prepared in deionised water and placed on ice before use.
(§3) A final working solution containing liver microsomes (Xenotech of a species of interest (human, mouse, rat, dog), previously described G6PDH and co-factors was prepared and this mix was incubated for no longer than 20 minutes at room temperature.
(§4) 30 μL of the pre-heated compound dilution was added to 40 μL of pre-heated water in the Matrix tubes and 30 μL of the microsomal mix was added.
(§5) To measure percentage remaining of compound at time zero MeOH or ACN was added (1:1) to the well before adding the microsomal mix.
(§6) The samples which were not stopped are incubated at 37° C., 300 rpm and after 1 hour of incubation the reaction was stopped with MeOH or ACN (1:1).
(§7) After stopping the reaction the samples were mixed and placed on ice for 30 min to precipitate the proteins.
(§8) The samples were analyzed on LCMS with a flow rate of 1 mL/min. Solvent A was 15 mM ammonia and solvent B was methanol or acetonitrile, depending on the stop solution used. […] The percentage remaining after 1 hour incubation was calculated from time 0 and was calculated as the percentage remaining.
(§9) The data on microsomal stability are expressed as a percentage of the total amount of compound remaining after 60 minutes.

[3] = Microsomal stability, rat liver microsomes; type: in vitro ADME; conditions: percentage of compound remaining after 60 minutes, 3 μM compound
Method: as §1, §2, §3, §4, §5, §6, §7, §8, §9

[4] = tested on: MMP13 in SW1353 cells; assay: OSM/IL-1β signaling assay (MMP13 levels in SW1353 cells); type: cell-based; conditions: Homo sapiens; SW1353 cells, OSM and IL-1β triggered, MMP13 levels 48 hours after triggering; read-out: MMP13 EC50;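 note: secreted MMP13 captured by antibody, activated with APMA and its activity read by fluorescence, inhibition scaled between vehicle-treated triggered wells (0%) and untriggered wells (100%)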
Method: The cells were seeded in 96 well plates at 15,000 cells/well in a volume of 120 μL DMEM (Invitrogen) containing 10% (v/v) FBS and 1% penicillin/streptomycin (InVitrogen) incubated at 37° C. […] MMP13 activity was measured using an antibody capture activity assay. […] Next the wells were washed twice with PBS+0.05% Tween followed by MMP13 activation by addition of 35 μL of a 1.5 mM 4-Aminophenylmercuric acetate (APMA) (Sigma, A9563) solution and incubation at 37° C. for 1 hour. […] Percentage inhibition=((fluorescence determined in the presence of vehicle−fluorescence determined for sample with test compound present) divided by (fluorescence determined in the presence of vehicle−fluorescence determined for sample without trigger))*100%.

[5] = tested on: JAK-STAT signalling in HeLa cells; assay: JAK-STAT signalling assay (OSM-triggered pSTAT1(2)-luciferase reporter in HeLa cells); type: cell-based; conditions: Homo sapiens; HeLa cells, OSM-triggered pSTAT1(2)-luciferase reporter; read-out: STAT signalling EC50
Method: HeLa cells were maintained in Dulbecco's Modified Eagle's Medium (DMEM) containing 10% heat inactivated fetal calf serum, 100 U/mL penicillin and 100 μg/mL streptomycin. HeLa cells were used at 70% confluence for transfection. 20,000 cells in 87 μL cell culture medium were transiently transfected with 40 ng pSTAT1(2)-luciferase reporter (Panomics), 8 ng of LacZ reporter as internal control reporter and 52 ng of pBSK using 0.32 μL Jet-PEI (Polyplus) as transfection reagent per well in 96-well plate format. After overnight incubation at 37° C., 10% CO2, transfection medium was removed.
40 μL of cell lysate was used to read β-galactosidase activity by adding 180 μL βGal solution (30 μl ONPG 4 mg/mL+150 μL β-Galactosidase buffer (0.06 M Na2HPO4, 0.04 M NaH2PO4, 1 mM MgCl2)) for 20 min.
Luciferase activity was measured using 40 μL cell lysate plus 40 μl of Steadylite® as described by the manufacturer (Perkin Elmer), on the Envision (Perkin Elmer).
The positive and negative controls were used to calculate z’ and ‘percent inhibition’ (PIN) values.
PIN values were plotted for compounds tested in dose-response and EC50 values were derived.

[6] = target: Recombinant human JAK2 catalytic domain (Homo sapiens (Human), UniProt O60674); assay: JAK2 inhibition assay; type: biochemical; conditions: semi-quantitative score
How it was run: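 Radiometric kinase reactions ran for 90 min at 30 °C and were stopped with phosphoric acid, then washed and counted by scintillation. Percent inhibition was set relative to vehicle and to 10 μM staurosporine background. IC50 was derived from dose-dilution series.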

Chain of Recombinant human JAK2 catalytic domain (O60674 808-1132): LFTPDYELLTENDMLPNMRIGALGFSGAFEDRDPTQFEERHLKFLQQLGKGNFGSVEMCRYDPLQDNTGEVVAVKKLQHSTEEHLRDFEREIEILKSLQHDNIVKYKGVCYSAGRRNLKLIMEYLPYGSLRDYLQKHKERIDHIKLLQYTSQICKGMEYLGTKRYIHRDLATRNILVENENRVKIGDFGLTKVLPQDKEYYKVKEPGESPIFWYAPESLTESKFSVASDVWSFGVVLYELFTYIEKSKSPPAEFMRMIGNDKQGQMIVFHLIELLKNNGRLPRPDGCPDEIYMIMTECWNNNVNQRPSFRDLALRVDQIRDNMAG
Chain of Recombinant human JAK1 catalytic domain (P23458 850-1154): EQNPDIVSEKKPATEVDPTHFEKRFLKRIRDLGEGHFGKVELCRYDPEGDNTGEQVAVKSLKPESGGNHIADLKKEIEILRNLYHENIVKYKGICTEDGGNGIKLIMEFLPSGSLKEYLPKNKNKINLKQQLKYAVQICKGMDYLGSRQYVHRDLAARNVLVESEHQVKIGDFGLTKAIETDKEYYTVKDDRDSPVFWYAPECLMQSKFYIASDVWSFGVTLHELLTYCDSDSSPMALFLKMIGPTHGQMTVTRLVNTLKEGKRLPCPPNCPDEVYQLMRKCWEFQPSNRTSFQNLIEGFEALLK

SMILES	IC50 [1]	Microsomal Stability Human (%) [2]	Microsomal Stability Rat (%) [3]	EC50 [4]	EC50 [5]	IC50 [6]
O=C(NC1CC1)c1ccc(-c2cccc3nc(NC(=O)C4CC4)nn23)cc1 [Compound 11, 4-(2-(cyclopropanecarboxamido)-[1,2,4]triazolo[1,5-a]pyridin-5-yl)-N-cyclopropylbenzamide]	0.101 to 0.5 µM	**** (**** 76-100)	**** (**** 76-100)			
O=C(Nc1ccncc1)c1ccc(-c2cccc3nc(NC(=O)C4CC4)nn23)cc1 [Compound 25, 4-(2-(cyclopropanecarboxamido)-[1,2,4]triazolo[1,5-a]pyridin-5-yl)-N-(pyridin-4-yl)benzamide]	< 0.1 µM	* (* 0-25)	* (* 0-25)	> 1 µM	> 1 µM	
O=C(Nc1nc2cccc(-c3ccc(NS(=O)(=O)c4cccnc4)cc3)n2n1)C1CC1 [Compound 64, N-(5-(4-(pyridine-3-sulfonamido)phenyl)-[1,2,4]triazolo[1,5-a]pyridin-2-yl)cyclopropanecarboxamide]	< 0.1 µM	**** (**** 76-100)	*** (*** 51-75)	> 1 µM	> 1 µM	
O=C(Nc1nc2cccc(-c3ccc(C(=O)N4CCCCC4)cc3F)n2n1)C1CC1 [Compound 89, N-(5-(2-fluoro-4-(piperidine-1-carbonyl)phenyl)-[1,2,4]triazolo[1,5-a]pyridin-2-yl)cyclopropanecarboxamide]	< 0.1 µM	*** (*** 51-75)	* (* 0-25)	> 1 µM	> 1 µM	
O=C(Nc1nc2cccc(-c3ccc(C(=O)N4CCN(c5cccc(Cl)c5)CC4)cc3)n2n1)C1CC1 [Compound 113]	< 0.1 µM	** (** 26-50)	*** (*** 51-75)	> 1 µM	> 1 µM	
CN(C(=O)COc1ccc(-c2cccc3nc(NC(=O)C4CC4)nn23)cc1)c1ccccc1 [Compound 118, N-(5-(4-(2-(methyl(phenyl)amino)-2-oxoethoxy)phenyl)-[1,2,4]triazolo[1,5-a]pyridin-2-yl)cyclopropanecarboxamide]	< 0.1 µM	* (* 0-25)	* (* 0-25)	> 1 µM	> 1 µM	
CN(Cc1ccccc1)c1ccc(-c2cccc3nc(NC(=O)C4CC4)nn23)cc1 [Compound 157, N-(5-(4-(benzyl(methyl)amino)phenyl)-[1,2,4]triazolo[1,5-a]pyridin-2-yl)cyclopropanecarboxamide]	< 0.1 µM	* (* 0-25)	* (* 0-25)		> 1 µM	
COc1ccc(NC(=O)c2ccc(-c3cccc4nc(NC(=O)C5CC5)nn34)cc2)cn1 [Compound 203, 4-[2-(Cyclopropanecarbonyl-amino)-[1,2,4]triazolo[1,5-a]pyridin-5-yl]-N-(6-methoxy-pyridin-3-yl)-benzamide]	< 0.1 µM	* (* 0-25)	*** (*** 51-75)		> 1 µM	0.101 to 0.5 µM
O=C(Nc1ccc(N2CCOCC2)nc1)c1ccc(-c2cccc3nc(NC(=O)C4CC4)nn23)cc1 [Compound 204, 4-[2-(Cyclopropanecarbonyl-amino)-[1,2,4]triazolo[1,5-a]pyridin-5-yl]-N-(6-morpholin-4-yl-pyridin-3-yl)-benzamide]	< 0.1 µM	* (* 0-25)	* (* 0-25)		> 1 µM	
O=C(Nc1cccnc1)c1ccc(-c2cccc3nc(NC(=O)C4CC4)nn23)cc1 [Compound 206, 4-[2-(Cyclopropanecarbonyl-amino)-[1,2,4]triazolo[1,5-a]pyridin-5-yl]-N-pyridin-3-yl-benzamide]	< 0.1 µM	**** (**** 76-100)	*** (*** 51-75)		> 1 µM	0.101 to 0.5 µM
O=C(Nc1nc2cccc(-c3ccc(CNc4cccnn4)cc3)n2n1)C1CC1 [Compound 222, Cyclopropanecarboxylic acid {5-[4-(pyridazin-3-ylaminomethyl)-phenyl]-[1,2,4]triazolo[1,5-a]pyridin-2-yl}-amide]	< 0.1 µM			> 1 µM	> 1 µM	0.101 to 0.5 µM
O=C(Nc1nc2cccc(-c3ccc(CNc4cccnc4)cc3)n2n1)C1CC1 [Compound 223, Cyclopropanecarboxylic acid {5-[4-(pyridin-3-ylaminomethyl)-phenyl]-[1,2,4]triazolo[1,5-a]pyridin-2-yl}-amide]	< 0.1 µM			> 1 µM	> 1 µM	0.501 to 1 µM

Other lines, results leading:

IC50 [1]	Microsomal Stability Human (%) [2]	Microsomal Stability Rat (%) [3]	EC50 [4]	EC50 [5]	IC50 [6]	SMILES
< 0.1 µM			0.001 to 0.5 µM	> 1 µM	0.101 to 0.5 µM	O=C(Nc1nc2cccc(-c3ccc(CN4CCOC(c5ccccc5)C4)cc3)n2n1)C1CC1 (centres unmarked) [Compound 231]
< 0.1 µM			> 1 µM	0.501 to 1 µM	< 0.1 µM	O=C(Nc1nc2cccc(-c3ccc(COc4ccccc4)cc3)n2n1)C1CC1 [Compound 238, Cyclopropanecarboxylic acid [5-(4-phenoxymethyl-phenyl)-[1,2,4]triazolo[1,5-a]pyridin-2-yl]-amide]
< 0.1 µM			> 1 µM	> 1 µM	0.101 to 0.5 µM	O=C(Nc1nc2cccc(-c3ccc(C(=O)N4CCCC(O)C4)cc3)n2n1)C1CC1 (centres unmarked) [Compound 270, Cyclopropanecarboxylic acid {5-[4-(3-hydroxy-piperidine-1-carbonyl)-phenyl]-[1,2,4]triazolo[1,5-a]pyridin-2-yl)-amide]
< 0.1 µM			> 1 µM	> 1 µM	0.101 to 0.5 µM	NC(=O)C1CCCCN1C(=O)c1ccc(-c2cccc3nc(NC(=O)C4CC4)nn23)cc1 (centres unmarked) [Compound 275, 1-{4-[2-(Cyclopropanecarbonyl-amino)-[1,2,4]triazolo[1,5-a]pyridin-5-yl]-benzoyl}-piperidine-2-carboxylic acid amide]
< 0.1 µM			> 1 µM	> 1 µM	0.101 to 0.5 µM	O=C(Nc1nc2cccc(-c3ccc(C(=O)N4CCCC(CO)C4)cc3)n2n1)C1CC1 (centres unmarked) [Compound 276, Cyclopropanecarboxylic acid {5-[4-(3-hydroxymethyl-piperidine-1-carbonyl)-phenyl]-[1,2,4]triazolo[1,5-a]pyridin-2-yl}-amide]
< 0.1 µM			> 1 µM	> 1 µM	0.501 to 1 µM	CN(C)C1CCN(C(=O)c2ccc(-c3cccc4nc(NC(=O)C5CC5)nn34)cc2)C1 (centres unmarked) [Compound 289, Cyclopropanecarboxylic acid {5-[4-(3-dimethylamino-pyrrolidine-1-carbonyl)-phenyl]-[1,2,4]triazolo[1,5-a]pyridin-2-yl}-amide]
< 0.1 µM			> 1 µM	> 1 µM	0.101 to 0.5 µM	O=C(Nc1nc2cccc(-c3ccc(C(=O)N4CCC(COc5cccnc5)CC4)cc3)n2n1)C1CC1 [Compound 292, Cyclopropanecarboxylic acid (5-{4-[4-(pyridin-3-yloxymethyl)-piperidine-1-carbonyl]-phenyl}-[1,2,4]triazolo[1,5-a]pyridin-2-yl)-amide]
0.101 to 0.5 µM	* (* 0-25)	* (* 0-25)			< 0.1 µM	O=C(Nc1nc[nH]n1)c1ccc(-c2cccc3nc(NC(=O)C4CC4)nn23)cc1 [Compound 331, 4-[2-(Cyclopropanecarbonyl-amino)-[1,2,4]triazolo[1,5-a]pyridin-5-yl]-N-(1H-1,2,4-triazol-3-yl)-benzamide]
